{
  "source": "patent US20080199449A1",
  "about": "“Methods and Compositions for Use in Treating Vascular Diseases and Conditions” (The General Hospital Corporation, priority 2005, published 2008)",
  "key": {"[1]": {"tested_on": "gridlock phenotype (atresia of the proximal aorta in grl^m145 mutants)", "details": "whole zebrafish embryos; Peterson et al., Nature Biotechnology 22:595-599, 2004; cited from earlier work"}, "[2]": {"tested_on": "gridlock phenotype (atresia of the proximal aorta in grl^m145 mutants)", "assay": "Suppression of the gridlock phenotype (restoration of trunk and tail circulation) in grl^m145 mutant embryos", "format": "in vivo, zebrafish", "method": "Screening for suppressors of the gridlock phenotype. The screen was performed as previous described with modifications (Peterson et al., Nature Biotechnology 22:595-599, 2004). Briefly, pairs of homozygous grl^m145 zebrafish were mated, and fertilized eggs were arrayed in 96-well plates containing E3 embryo buffer. At the 6-somite stage, small molecules from the DiverSet E library (Chembridge) were added to each well, yielding a final concentration of 2.5 μM. Embryos were incubated at 28.5° C. for 48 hrs. Circulation to the tail was assessed visually using a dissecting microscope.\nFluorescent microangiography. Fluorescence microangiography was performed as previously described (Weinstein et al., Nature Medicine 1:1143-1147, 1995)."}, "zebrafish embryos": {"tested_on": "zebrafish embryos", "assay": "Gross embryonic morphology and lethality after compound exposure", "format": "in vivo"}, "[3]": {"tested_on": "dorsal aorta and cardinal veins", "assay": "Artery-vein morphology in embryos expressing GFP in endothelial cells (fli-1 promoter)", "format": "in vivo, zebrafish", "details": "for Vascular defects at higher doses: doses higher than the 1- to 5 μM suppressing range"}},
  "note": "Entries after “also recorded” stand apart in the source; their conditions may differ.",
  "data": [
    {"smiles": "COc1ccc(SCCc2ccncc2)cc1.Cl", "note": "[GS4012]", "values": [
      {"measurement": "Suppression of the vascular defect in gridlock mutant embryos (earlier screen)", "setting": "[1]", "result": "suppresses the vascular defect in gridlock mutant embryos"},
      {"measurement": "Suppression of the gridlock phenotype, single treatment at sub-effective dose", "setting": "[2]; GS4898 0.75 μM, LY294002 3 μM, wortmannin 0.075 μM, GS4012 0.7 μg/mL (FIG. 1F)", "result": "does not suppress"},
      {"measurement": "Suppression of the gridlock phenotype (tail circulation)", "setting": "[2]; homozygous grl^m145 mutant zebrafish embryos", "result": "suppressed"}
    ]},
    {"smiles": "N#C/C(=C(/N)Sc1ccc(N)cc1)c1ccccc1C(F)(F)F", "note": "[SL327]", "values": [
      {"measurement": "Gross embryonic morphology, treatment starting at 12-hpf", "setting": "zebrafish embryos; 36-hpf embryos, GS4898 10 μM, SL327 60 μM (FIG. 5)", "result": "moderately deformed tail curvature, but otherwise grossly intact head organogenesis, somitogenesis, and yolk extension"},
      {"measurement": "Embryonic lethality and gross defects, treatment at stages earlier than 12-hpf", "setting": "zebrafish embryos; treatment of embryos at earlier stages (FIG. 5)", "result": "high degree of embryonic lethality and variable gross morphologic defects"}
    ]},
    {"smiles": "COC[C@H]1OC(=O)c2coc3c2[C@@]1(C)C1=C(C3=O)[C@@H]2CCC(=O)[C@@]2(C)C[C@H]1OC(C)=O", "note": "[wortmannin]", "values": [
      {"measurement": "Vascular defects at higher doses", "setting": "[3]", "result": "severe vascular defects"}
    ]},
    {"smiles": "N#CC(=C(/N)Sc1ccccc1N)/C(C#N)=C(\\N)Sc1ccccc1N", "note": "[U0126]", "values": [
      {"measurement": "Effect on aorta (artery formation)", "setting": "[3]; 48-hpf fli-1 GFP embryos, GS4898 15 μM, U0126 100 μM, SL327 (FIG. 3E-G)", "result": "either loss or reduction of aorta; also recorded: the aorta is greatly reduced"},
      {"measurement": "Effect on vein (posterior/common cardinal vein, vein formation)", "setting": "[3]; 48-hpf fli-1 GFP embryos, GS4898 15 μM, U0126 100 μM, SL327 (FIG. 3F, G)", "result": "expansion of the common cardinal vein; also recorded: enlarged"}
    ]},
    {"smiles": "O=c1cc(N2CCOCC2)oc2c(-c3ccccc3)cccc12", "note": "[LY294002]", "values": [
      {"measurement": "Vascular defects at higher doses", "setting": "[3]", "result": "severe vascular defects"}
    ]}
  ]
}
